Results from patent publication EP0026409A1, “Combinations of active ingredients, pharmaceutical preparations, as well as their preparation” (F. HOFFMANN-LA ROCHE & CO. Aktiengesellschaft, priority 1979, dated 1981).
In brackets after ≈: the same amount, converted by molar mass. Like-named read-outs stand apart in the source and are kept apart here.

Experiments:
Experiment in all cases: In vitro activity: M.I.C. on nutrient agar plates, surface inoculation, 24 h at 37°C
Type in all cases: cell-based
Escherichia coli = conditions: E. coli, Peptid or Antibiotikum alone
Text: (§1) Es wurden konzentrierte Lösungen von Gemischen der Verbindungen der Formel I und dem Antibiotikum in den gewünschten Gewichtsverhältnissen hergestellt, die dann beliebig verdünnt wurden. Aliquote Teile der verdünnten Lösungen wurden mit einem geeigneten Nähragar in Petrischalen gemischt. Zum Vergleich wurden ähnliche Agar-Schalen hergestellt, die ausser dem Nährmedium die Verbindung I bzw. das Antibiotikum alleine enthielten. Nach Oberflächeninokulation mit den Mikroorganismen wurde 24 Stunden bei 37°C aufbewahrt und dann die minimale Hemmkonzentration (M.I.C.) bestimmt und die F.I.C.-Indexe berechnet. Die Ergebnisse unter Verwendung repräsentativer Verbindungen der Formel I, nämlich (1R)-1-(N-Sarcosyl-L-norvalyl-L-norvalylamino)-ethylphosphonsäure, und (1R)-1-(N-Methyl-L-leucyl-L-norvalyl-L-norvalylamino)-ethylphosphonsäure und repräsentativer Antibiotika, nämlich Cephalexin und D-Cycloserin, sind in den folgenden Tabellen I-III zusammengestellt..

Streptococcus agalactiae = conditions: S.agalactiae, Peptid or Antibiotikum alone
Text: as §1

[1] = test system: Streptococcus dysgalactiae; conditions: S.dysgalactiae, Peptid or Antibiotikum alone
Text: as §1

Staphylococcus aureus = conditions: S. aureus, Peptid or Antibiotikum alone; for MIC: Staphylococcus aureus, 24 h
Text: as §1

Proteus mirabilis = conditions: P. mirabilis, Peptid or Antibiotikum alone
Text: as §1

Streptococcus pyogenes = conditions: S. pyogenes, Peptid or Antibiotikum alone
Text: as §1

Streptococcus faecalis = conditions: S. faecalis, Peptid or Antibiotikum alone
Text: as §1

## N[C@@H]1CONC1=O [D-Cycloserin]
Escherichia coli; Escherichia coli, 24 h
  MIC: 32 µg/mL (≈ 313 µM)
Streptococcus agalactiae; Streptococcus agalactiae, 24 h
  MIC: 90.5 µg/mL (≈ 886 µM)
[1]; Streptococcus dysgalactiae, 24 h
  MIC: 128 µg/mL (≈ 1250 µM)
Staphylococcus aureus; read-out: M.I.C.
  MIC: 16 µg/mL (≈ 157 µM)

## CCC[C@H](NC(=O)CNC)C(=O)N[C@@H](CCC)C(=O)N[C@@H](C)P(=O)(O)O [(1R)-1-(N-Sarcosyl-L-norvalyl-L-norvalylamino)-ethylphosphonsäure]
Proteus mirabilis
  M.I.C.: >128 µg/mL
Escherichia coli
  M.I.C.: 2 µg/mL
Streptococcus agalactiae
  M.I.C.: 45.2 µg/mL
[1]
  M.I.C.: 2.8 µg/mL
Staphylococcus aureus
  M.I.C.: >128 µg/mL
Streptococcus pyogenes
  M.I.C.: 90.5 µg/mL
Streptococcus faecalis
  M.I.C.: 90.5 µg/mL

## CC1=C(C(=O)O)N2C(=O)[C@@H](NC(=O)[C@H](N)c3ccccc3)[C@H]2SC1 [Cephalexin]
Proteus mirabilis; Proteus mirabilis, 24 h
  MIC: 22.6 µg/mL (≈ 65.1 µM)
Staphylococcus aureus
  M.I.C.: 64 µg/mL
  MIC: 45.2 µg/mL (≈ 130 µM)
Streptococcus pyogenes
  M.I.C.: 8 µg/mL
Streptococcus pyogenes; Streptococcus pyogenes, 24 h
  MIC: 11.3 µg/mL (≈ 32.5 µM)
Streptococcus faecalis; Enterococcus faecalis, 24 h
  MIC: 128 µg/mL (≈ 368 µM)

## CCC[C@H](NC(=O)[C@H](CC(C)C)NC)C(=O)N[C@@H](CCC)C(=O)N[C@@H](C)P(=O)(O)O [(1R)-1-(N-Methyl-L-leucyl-L-norvalyl-L-norvalylamino)-ethylphosphonsäure]
Staphylococcus aureus
  M.I.C.: >64 µg/mL
Streptococcus pyogenes
  M.I.C.: >64 µg/mL
Streptococcus faecalis
  M.I.C.: 2 µg/mL
